The values below are quoted from earlier work in patent US20250222014A1, “COMPOSITION FOR LOCALIZED FAT REDUCTION WITHOUT PAIN, EDEMA AND SIDE EFFECTS AND METHOD OF ADMINISTRATION THEREOF” (AMI PHARM CO., LTD., priority 2024, published 2025).

This data set deals with adipocytes (3T3L1 adipocytes), normal fibroblasts, vascular endothelial cells and skeletal muscle cells. The note with it: Gupta, Aest Plast Sur, 33:346-352, 2009.

Regarding `C[C@H](CCC(=O)O)[C@H]1CC[C@H]2[C@@H]3CC[C@@H]4C[C@H](O)CC[C@]4(C)[C@H]3C[C@H](O)[C@]12C` [DCA, (4R)-4-[(3R,5R,8R,9S,10S,12S,13R,14S,17R)-3,12-dihydroxy-10,13-dimethyl-2,3,4,5,6,7,8,9,11,12,14,15, 16,17-tetradecahydro-1H-cyclopenta[a]phenanthren-17-yl] pentanoic acid], the “cell lysis selectivity (cell-lytic rather than fat-dissolving)” value is “non-selectively dissolves not only adipocytes (3T3L1 adipocytes) but also normal fibroblasts, vascular endothelial cells and skeletal muscle cells”.
